Laboratory results: ChEMBL document CHEMBL5463721, “Data for DCP probe WEB2086” (2023)

How the values were obtained:
[1] = molecular target: Platelet-activating factor receptor (Homo sapiens, UniProt P25105); experiment: PAF Receptor Binding
[2] = molecular target: 5-hydroxytryptamine receptor 1B (Homo sapiens) (UniProt P28222); experiment: 5-HT1B Eurofins-Cerep binding assay; set-up: ligand concentration 1 nM; details: Compound concentration 10.0 uM
[3] = molecular target: Cannabinoid receptor 1 (Homo sapiens) (UniProt P21554); experiment: CB1 Eurofins-Cerep binding assay; details: Compound concentration 10.0 uM
[4] = molecular target: Prostaglandin G/H synthase 1 (Homo sapiens) (UniProt P23219); experiment: Inhibitor of COX-1 in the Eurofins Cerep SafetyScreen44 (BI) by Fluorimetry (Cerep_4173); details: Compound concentration 10.0 uM
[5] = molecular target: Prostaglandin G/H synthase 2 (Homo sapiens) (UniProt P35354); experiment: Inhibitor of COX-2 in the Eurofins Cerep SafetyScreen44 (BI) by Fluorimetry (Cerep_4186); details: Compound concentration 10.0 uM
[6] = molecular target: Kappa-type opioid receptor (Homo sapiens) (UniProt P41145); experiment: kappa (KOP) Eurofins-Cerep binding assay; details: Compound concentration 10.0 uM
Kappa-type opioid receptor (Homo sapiens), sequence (P41145 whole entry): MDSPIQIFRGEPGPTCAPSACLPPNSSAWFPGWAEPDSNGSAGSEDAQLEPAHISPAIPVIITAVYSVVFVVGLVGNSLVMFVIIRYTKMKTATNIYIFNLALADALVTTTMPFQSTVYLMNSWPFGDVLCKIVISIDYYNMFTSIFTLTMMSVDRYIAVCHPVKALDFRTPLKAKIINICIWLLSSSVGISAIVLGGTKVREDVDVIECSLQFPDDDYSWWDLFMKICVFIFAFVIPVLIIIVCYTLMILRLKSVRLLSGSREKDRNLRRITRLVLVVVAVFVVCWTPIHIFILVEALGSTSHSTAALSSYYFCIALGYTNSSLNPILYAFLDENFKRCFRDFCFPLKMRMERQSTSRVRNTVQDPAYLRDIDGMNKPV

[7] = molecular target: 5-hydroxytryptamine receptor 1A (Homo sapiens) (UniProt P08908); experiment: 5-HT1A Eurofins-Cerep binding assay; set-up: ligand concentration 0.5 nM; details: Compound concentration 10.0 uM
[8] = molecular target: 5-hydroxytryptamine receptor 2A (Homo sapiens) (UniProt P28223); experiment: Agonist activity in the Eurofins Cerep SafetyScreen44 (BI) against 5HT2AH_AGON by Scintillation counting (Cerep_471); details: Compound concentration 10.0 uM
[9] = molecular target: 5-hydroxytryptamine receptor 2B (Homo sapiens) (UniProt P41595); experiment: 5-HT2B Eurofins-Cerep binding assay; details: Compound concentration 10.0 uM
[10] = molecular target: 5-hydroxytryptamine receptor 3A (Homo sapiens) (UniProt P46098); experiment: 5-HT3 Eurofins-Cerep binding assay; set-up: ligand concentration 0.5 nM; details: Compound concentration 10.0 uM
[11] = molecular target: Adenosine receptor A2a (Homo sapiens) (UniProt P29274); experiment: A2A Eurofins-Cerep binding assay; set-up: ligand concentration 6 nM; details: Compound concentration 10.0 uM
[12] = molecular target: Angiotensin-converting enzyme (Homo sapiens) (UniProt P12821); experiment: Activity against ACE(HU_AMTCH400) in the Eurofins Cerep SafetyScreen44 (BI) by Photometry (Cerep_3441); details: Compound concentration 10.0 uM
Angiotensin-converting enzyme (Homo sapiens), sequence (P12821 whole entry): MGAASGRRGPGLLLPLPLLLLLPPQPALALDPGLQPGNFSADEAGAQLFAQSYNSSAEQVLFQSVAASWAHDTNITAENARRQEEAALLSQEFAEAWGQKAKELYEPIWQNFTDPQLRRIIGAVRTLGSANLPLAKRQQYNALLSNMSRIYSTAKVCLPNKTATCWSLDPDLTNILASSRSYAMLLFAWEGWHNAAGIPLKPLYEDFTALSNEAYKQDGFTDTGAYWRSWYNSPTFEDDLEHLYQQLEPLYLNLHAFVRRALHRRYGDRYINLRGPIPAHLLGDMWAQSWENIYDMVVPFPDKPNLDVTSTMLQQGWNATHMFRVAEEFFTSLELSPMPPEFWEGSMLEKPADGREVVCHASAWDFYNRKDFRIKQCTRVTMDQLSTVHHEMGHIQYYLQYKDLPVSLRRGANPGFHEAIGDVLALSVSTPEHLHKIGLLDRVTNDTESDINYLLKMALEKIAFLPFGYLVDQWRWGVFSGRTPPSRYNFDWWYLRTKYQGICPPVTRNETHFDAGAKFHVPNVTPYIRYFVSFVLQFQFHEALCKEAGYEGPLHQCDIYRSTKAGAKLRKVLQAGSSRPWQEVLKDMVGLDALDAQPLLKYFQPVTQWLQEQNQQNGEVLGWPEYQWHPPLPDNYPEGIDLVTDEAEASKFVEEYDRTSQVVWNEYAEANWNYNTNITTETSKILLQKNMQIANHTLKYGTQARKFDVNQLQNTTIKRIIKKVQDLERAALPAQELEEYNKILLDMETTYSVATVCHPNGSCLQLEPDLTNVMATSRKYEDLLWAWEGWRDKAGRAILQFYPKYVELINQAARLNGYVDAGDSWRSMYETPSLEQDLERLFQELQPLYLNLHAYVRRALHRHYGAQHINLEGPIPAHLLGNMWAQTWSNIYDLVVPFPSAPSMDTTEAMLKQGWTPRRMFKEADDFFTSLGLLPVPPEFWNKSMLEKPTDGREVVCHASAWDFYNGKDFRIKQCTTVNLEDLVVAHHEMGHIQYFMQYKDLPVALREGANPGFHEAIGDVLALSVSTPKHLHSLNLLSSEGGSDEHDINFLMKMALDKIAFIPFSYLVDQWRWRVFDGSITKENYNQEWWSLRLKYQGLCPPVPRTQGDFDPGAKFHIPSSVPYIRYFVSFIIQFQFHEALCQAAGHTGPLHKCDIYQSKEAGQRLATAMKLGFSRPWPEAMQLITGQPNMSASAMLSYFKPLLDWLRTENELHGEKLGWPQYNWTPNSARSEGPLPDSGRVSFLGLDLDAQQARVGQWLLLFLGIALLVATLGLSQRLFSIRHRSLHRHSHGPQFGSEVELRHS

[13] = molecular target: Alpha-1A adrenergic receptor (Homo sapiens) (UniProt P35348); experiment: Agonist activity in the Eurofins Cerep SafetyScreen44 (BI) against ALPHA1AH_ANTAG by Scintillation counting (Cerep_2338); details: Compound concentration 10.0 uM
[14] = molecular target: Alpha-2A adrenergic receptor (Homo sapiens) (UniProt P08913); experiment: Inhibitor of ALPHA2A/HU in the Eurofins Cerep SafetyScreen44 (BI) by Radioactive Assay (Cerep_13); details: Compound concentration 10.0 uM
Alpha-2A adrenergic receptor (Homo sapiens), sequence (P08913 whole entry): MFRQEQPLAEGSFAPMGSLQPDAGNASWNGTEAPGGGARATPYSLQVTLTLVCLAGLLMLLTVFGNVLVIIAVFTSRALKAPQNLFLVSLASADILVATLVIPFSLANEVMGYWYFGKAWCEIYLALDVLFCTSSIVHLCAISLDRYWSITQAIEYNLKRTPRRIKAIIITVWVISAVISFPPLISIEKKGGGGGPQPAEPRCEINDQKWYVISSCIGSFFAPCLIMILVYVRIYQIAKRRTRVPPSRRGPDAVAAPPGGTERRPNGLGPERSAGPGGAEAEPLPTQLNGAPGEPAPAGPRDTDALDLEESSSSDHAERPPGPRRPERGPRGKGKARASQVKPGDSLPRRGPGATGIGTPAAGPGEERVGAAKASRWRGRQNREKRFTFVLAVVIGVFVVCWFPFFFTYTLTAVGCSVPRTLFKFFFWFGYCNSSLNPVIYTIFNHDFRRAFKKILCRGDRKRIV

[15] = molecular target: Beta-1 adrenergic receptor (Homo sapiens) (UniProt P08588); experiment: beta 1 Eurofins-Cerep binding assay; set-up: ligand concentration 0.3 nM; details: Compound concentration 10.0 uM
[16] = molecular target: Beta-2 adrenergic receptor (Homo sapiens) (UniProt P07550); experiment: beta 2 Eurofins-Cerep binding assay; details: Compound concentration 10.0 uM
Rattus norvegicus [17] = species: Rattus norvegicus; experiment: Activity against BZD/CENTR/R in the Eurofins Cerep SafetyScreen44 (BI) by Radioactive Assay (Cerep_28); format: protein-complex assay; details: Compound concentration 10.0 uM
[18] = molecular target: L-type calcium channel (dihydropyridine site), Cav1.2 alpha-1C (Rattus norvegicus, UniProt P22002); experiment: Inhibitor of CA+/DHPSI/R in the Eurofins Cerep SafetyScreen44 (BI) by Radioactive Assay (Cerep_161); format: protein assay; set-up: scale not given: the % may be the effect or the level left; details: rat brain, probe [3H](+)PN200-110, compound concentration 10 uM, read-out: % Ctrl
[19] = molecular target: Cannabinoid receptor 2 (Homo sapiens) (UniProt P34972); experiment: Activity against CB2/PERIPH/H in the Eurofins Cerep SafetyScreen44 (BI) by Radioactive Assay (Cerep_37); details: Compound concentration 10.0 uM
[20] = molecular target: Cholecystokinin receptor type A (Homo sapiens) (UniProt P32238); experiment: CCK1 (CCKA) Eurofins-Cerep binding assay; set-up: ligand concentration 0.08 nM; details: Compound concentration 10.0 uM
[21] = molecular target: D(1A) dopamine receptor (Homo sapiens) (UniProt P21728); experiment: D1 Eurofins-Cerep binding assay; set-up: ligand concentration 0.3 nM; details: Compound concentration 10.0 uM
[22] = molecular target: D(2) dopamine receptor (Homo sapiens) (UniProt P14416); experiment: Agonist activity in the Eurofins Cerep SafetyScreen44 (BI) against D2SH_AGON by Scintillation counting (Cerep_1322); details: Compound concentration 10.0 uM
[23] = molecular target: Sodium-dependent dopamine transporter (Homo sapiens) (UniProt Q01959); experiment: dopamine transporter Eurofins-Cerep binding assay; details: Compound concentration 10.0 uM
[24] = molecular target: Delta-type opioid receptor (Homo sapiens) (UniProt P41143); experiment: delta (DOP) Eurofins-Cerep binding assay; set-up: ligand concentration 0.5 nM; details: Compound concentration 10.0 uM
[25] = molecular target: Endothelin-1 receptor (Homo sapiens) (UniProt P25101); experiment: ETA Eurofins-Cerep binding assay; set-up: ligand concentration 0.03 nM; details: Compound concentration 10.0 uM
[26] = molecular target: Glucocorticoid receptor (Homo sapiens) (UniProt P04150); experiment: GR Eurofins-Cerep binding assay; details: Compound concentration 10.0 uM
[27] = molecular target: Histamine H1 receptor (Homo sapiens) (UniProt P35367); experiment: H1 Eurofins-Cerep binding assay; set-up: ligand concentration 1 nM; details: Compound concentration 10.0 uM
[28] = molecular target: Histamine H2 receptor (Homo sapiens) (UniProt P25021); experiment: H2 Eurofins-Cerep binding assay; set-up: ligand concentration 0.075 nM; details: Compound concentration 10.0 uM
hERG (KCNH2) = hERG (KCNH2) (Homo sapiens, UniProt Q12809); experiment: Inhibitor of HERG_DOFETILIDE in the Eurofins Cerep SafetyScreen44 (BI) by Scintillation counting (Cerep_4094); set-up: scale not given: the % may be the effect or the level left; details: probe [3H] dofetilide, compound concentration 10 uM, read-out: % Ctrl
Rattus norvegicus [29] = species: Rattus norvegicus; experiment: KV channel Eurofins-Cerep binding assay; set-up: ligand concentration 0.01 nM; details: Compound concentration 10.0 uM
[30] = molecular target: Tyrosine-protein kinase Lck (Homo sapiens) (UniProt P06239); experiment: Inhibitor of LCK_CE in the Eurofins Cerep SafetyScreen44 (BI) by lanthanide chelation excitation (Cerep_2906); details: Compound concentration 10.0 uM
Tyrosine-protein kinase Lck (Homo sapiens), sequence (P06239 2-509 limits assumed): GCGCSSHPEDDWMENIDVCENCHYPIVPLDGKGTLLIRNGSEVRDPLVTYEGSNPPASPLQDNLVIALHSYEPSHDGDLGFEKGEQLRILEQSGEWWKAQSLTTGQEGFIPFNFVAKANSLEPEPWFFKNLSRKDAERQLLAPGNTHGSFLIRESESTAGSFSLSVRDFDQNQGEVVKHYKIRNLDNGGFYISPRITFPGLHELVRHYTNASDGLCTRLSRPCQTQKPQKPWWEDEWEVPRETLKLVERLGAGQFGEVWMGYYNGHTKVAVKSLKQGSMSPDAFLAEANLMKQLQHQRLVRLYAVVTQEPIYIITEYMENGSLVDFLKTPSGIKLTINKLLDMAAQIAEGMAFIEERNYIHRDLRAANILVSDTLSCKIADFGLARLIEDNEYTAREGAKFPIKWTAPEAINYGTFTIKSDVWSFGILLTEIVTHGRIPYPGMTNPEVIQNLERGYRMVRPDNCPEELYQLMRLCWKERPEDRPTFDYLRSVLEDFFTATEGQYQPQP

[31] = molecular target: Muscarinic acetylcholine receptor M1 (Homo sapiens) (UniProt P11229); experiment: M1 Eurofins-Cerep binding assay; set-up: ligand concentration 2 nM; details: Compound concentration 10.0 uM
[32] = molecular target: Muscarinic acetylcholine receptor M2 (Homo sapiens) (UniProt P08172); experiment: M2 Eurofins-Cerep binding assay; set-up: ligand concentration 2 nM; details: Compound concentration 10.0 uM
[33] = molecular target: Muscarinic acetylcholine receptor M3 (Homo sapiens) (UniProt P20309); experiment: M3 Eurofins-Cerep binding assay; set-up: ligand concentration 0.2 nM; details: Compound concentration 10.0 uM
Muscarinic acetylcholine receptor M3 (Homo sapiens), sequence (P20309 whole entry, looked up): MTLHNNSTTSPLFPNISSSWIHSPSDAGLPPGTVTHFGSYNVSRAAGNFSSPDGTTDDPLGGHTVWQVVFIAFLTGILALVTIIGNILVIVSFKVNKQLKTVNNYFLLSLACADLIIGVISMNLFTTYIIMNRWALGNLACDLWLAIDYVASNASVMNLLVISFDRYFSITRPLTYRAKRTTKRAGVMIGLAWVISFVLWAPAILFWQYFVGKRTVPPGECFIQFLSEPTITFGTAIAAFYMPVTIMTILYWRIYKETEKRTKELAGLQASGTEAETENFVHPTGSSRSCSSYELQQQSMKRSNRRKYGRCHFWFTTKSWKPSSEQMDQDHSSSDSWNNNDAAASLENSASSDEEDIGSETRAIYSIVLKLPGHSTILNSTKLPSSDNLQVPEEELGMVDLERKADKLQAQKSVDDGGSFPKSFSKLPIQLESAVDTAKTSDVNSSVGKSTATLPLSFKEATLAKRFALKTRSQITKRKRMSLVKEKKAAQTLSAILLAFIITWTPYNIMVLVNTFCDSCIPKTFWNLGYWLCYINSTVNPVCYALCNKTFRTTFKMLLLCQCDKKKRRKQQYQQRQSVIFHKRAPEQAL

[34] = molecular target: MAO-A (amine oxidase [flavin-containing] A) (Homo sapiens, UniProt P21397); experiment: Agonist activity in the Eurofins Cerep SafetyScreen44 (BI) against MAO-A_ANTAG by Scintillation counting (Cerep_443); set-up: scale not given: the % may be the effect or the level left; details: rat; compound concentration 10 uM; target entry is the homologue from another species; read-out: % Ctrl
MAO-A (amine oxidase [flavin-containing] A), sequence (P21397 whole entry): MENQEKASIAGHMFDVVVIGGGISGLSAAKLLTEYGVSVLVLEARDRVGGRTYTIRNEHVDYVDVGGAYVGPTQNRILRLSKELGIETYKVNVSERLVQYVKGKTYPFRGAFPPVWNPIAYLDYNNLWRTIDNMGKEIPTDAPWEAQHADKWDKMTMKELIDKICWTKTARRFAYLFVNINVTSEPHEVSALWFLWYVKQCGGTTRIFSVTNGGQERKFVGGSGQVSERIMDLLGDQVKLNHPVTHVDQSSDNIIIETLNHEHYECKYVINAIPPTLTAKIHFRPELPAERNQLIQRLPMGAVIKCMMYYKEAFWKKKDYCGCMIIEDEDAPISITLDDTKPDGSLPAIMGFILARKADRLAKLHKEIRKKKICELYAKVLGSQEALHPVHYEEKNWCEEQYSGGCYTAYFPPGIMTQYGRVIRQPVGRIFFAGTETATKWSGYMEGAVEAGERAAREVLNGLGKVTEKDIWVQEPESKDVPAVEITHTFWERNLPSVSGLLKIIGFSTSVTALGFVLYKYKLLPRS

[35] = molecular target: Mu-type opioid receptor (Homo sapiens) (UniProt P35372); experiment: mu (MOP) Eurofins-Cerep binding assay; set-up: ligand concentration 0.5 nM; details: Compound concentration 10.0 uM
Mu-type opioid receptor (Homo sapiens), sequence (P35372 whole entry): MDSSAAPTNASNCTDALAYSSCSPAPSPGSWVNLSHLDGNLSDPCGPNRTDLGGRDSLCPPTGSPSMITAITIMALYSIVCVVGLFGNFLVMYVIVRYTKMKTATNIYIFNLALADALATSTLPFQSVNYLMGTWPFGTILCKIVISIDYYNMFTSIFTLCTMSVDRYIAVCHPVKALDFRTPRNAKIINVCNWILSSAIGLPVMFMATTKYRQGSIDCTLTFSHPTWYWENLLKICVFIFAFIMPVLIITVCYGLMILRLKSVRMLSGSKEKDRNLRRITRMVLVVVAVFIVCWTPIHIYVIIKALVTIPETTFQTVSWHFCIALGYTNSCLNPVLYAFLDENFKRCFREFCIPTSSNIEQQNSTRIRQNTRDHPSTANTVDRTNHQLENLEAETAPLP

[36] = molecular target: Sodium-dependent noradrenaline transporter (Homo sapiens) (UniProt P23975); experiment: norepinephrine transporter Eurofins-Cerep binding assay; set-up: ligand concentration 1 nM; details: Compound concentration 10.0 uM
[37] = molecular target: Glutamate NMDA receptor (Rattus norvegicus) (UniProt P35439+Q00959+Q00960+Q00961+Q62645+Q8VHN2+Q9R1M7); experiment: Inhibitor of NMDA/R in the Eurofins Cerep SafetyScreen44 (BI) by Radioactive Assay (Cerep_66); format: protein-complex assay; details: Compound concentration 10.0 uM
Homo sapiens = species: Homo sapiens; experiment: Agonist activity in the Eurofins Cerep SafetyScreen44 (BI) against N_NEURO_A4B2 by Radioligand Binding (Cerep_3029); format: protein-complex assay; details: Compound concentration 10.0 uM
[38] = molecular target: cGMP-inhibited 3',5'-cyclic phosphodiesterase 3A (Homo sapiens) (UniProt Q14432); experiment: Inhibitor of PDE3A in the Eurofins Cerep SafetyScreen44 (BI) by HTRF-homogeneous time resolved fluoresce (Cerep_4072); details: Compound concentration 10.0 uM
[39] = molecular target: 3',5'-cyclic-AMP phosphodiesterase 4D (Homo sapiens) (UniProt Q08499); experiment: Inhibitor of PDE4D2 in the Eurofins Cerep SafetyScreen44 (BI) by Scintillation counting (Cerep_4077); details: Compound concentration 10.0 uM
3',5'-cyclic-AMP phosphodiesterase 4D (Homo sapiens), sequence (Q08499 whole entry): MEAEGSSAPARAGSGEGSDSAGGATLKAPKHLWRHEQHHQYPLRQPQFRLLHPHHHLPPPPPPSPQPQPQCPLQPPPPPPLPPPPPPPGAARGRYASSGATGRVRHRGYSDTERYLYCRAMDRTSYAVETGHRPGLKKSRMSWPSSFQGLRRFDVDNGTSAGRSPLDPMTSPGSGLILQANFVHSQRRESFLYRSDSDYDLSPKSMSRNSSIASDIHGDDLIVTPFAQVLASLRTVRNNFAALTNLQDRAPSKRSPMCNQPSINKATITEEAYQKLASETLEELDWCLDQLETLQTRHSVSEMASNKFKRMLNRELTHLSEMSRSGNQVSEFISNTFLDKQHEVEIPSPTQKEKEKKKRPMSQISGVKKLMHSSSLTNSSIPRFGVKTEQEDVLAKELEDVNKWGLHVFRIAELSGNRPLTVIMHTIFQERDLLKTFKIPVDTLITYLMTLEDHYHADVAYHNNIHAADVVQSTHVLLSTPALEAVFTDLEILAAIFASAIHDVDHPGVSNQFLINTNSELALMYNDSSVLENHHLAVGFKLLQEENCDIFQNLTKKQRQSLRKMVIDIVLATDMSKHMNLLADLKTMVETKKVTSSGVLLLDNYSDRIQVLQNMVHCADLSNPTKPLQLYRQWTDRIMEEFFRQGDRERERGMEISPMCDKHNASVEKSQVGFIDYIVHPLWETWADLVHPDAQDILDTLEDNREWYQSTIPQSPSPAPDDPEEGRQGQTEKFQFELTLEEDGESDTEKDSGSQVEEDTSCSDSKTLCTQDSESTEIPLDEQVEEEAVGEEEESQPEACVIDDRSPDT

[40] = molecular target: Sodium-dependent serotonin transporter (Homo sapiens) (UniProt P31645); experiment: 5-HT transporter Eurofins-Cerep binding assay; set-up: ligand concentration 2 nM; details: Compound concentration 10.0 uM
[41] = molecular target: Vasopressin V1a receptor (Homo sapiens) (UniProt P37288); experiment: V1a Eurofins-Cerep binding assay; set-up: ligand concentration 0.3 nM; details: Compound concentration 10.0 uM
[42] = molecular target: Androgen receptor (Homo sapiens) (UniProt P10275); details: Compound concentration 10.0 uM
Description: Activity against ANDROGEN/H in the Eurofins Cerep SafetyScreen44 (BI) by Radioactive Assay (Cerep_933)

Cc1nnc2n1-c1sc3c(c1C(c1ccccc1Cl)=NC2)C[C@@H](C(=O)N1CCOCC1)C3
Kd [1]: 660 nM (not active)
residual activity [2]: 65%
residual activity [3]: 123%
residual activity [4]: 97%
residual activity [5]: 96%
residual activity [6]: 91%
residual activity [7]: 88%
residual activity [8]: 100%
residual activity [9]: 92%
residual activity [10]: 103%
residual activity [11]: 106%
residual activity [12]: 102%
residual activity [13]: 95%
residual activity [14]: 102%
residual activity [15]: 88%
residual activity [16]: 103%
residual activity (Rattus norvegicus [17]): 102%
activity at 10 µM [18]: 103% (not active)
residual activity [19]: 107%
residual activity [20]: 90%
residual activity [21]: 97%
residual activity [22]: 97%
residual activity [23]: 96%
residual activity [24]: 101%
residual activity [25]: 103%
residual activity [26]: 115%
residual activity [27]: 100%
residual activity [28]: 100%
activity at 10 µM (hERG (KCNH2)): 93% (not active)
residual activity (Rattus norvegicus [29]): 101%
residual activity [30]: 106%
residual activity [31]: 104%
residual activity [32]: 82%
residual activity [33]: 84%
activity at 10 µM [34]: 107% (not active)
residual activity [35]: 109%
residual activity [36]: 99%
residual activity [37]: 97%
residual activity (Homo sapiens): 94%
residual activity [38]: 109%
residual activity [39]: 104%
residual activity [40]: 98%
residual activity [41]: 84%
residual activity [42]: 106%
